This is an account of results in article PMC12525769, “Structure and quenching of a bundle-shaped phycobilisome” (Science Advances, 2025).

Experiment in all cases: cryo-EM structure of phycobilisome
What all share (assay type): binding

The target in assay [1] is T1, phycocyanin (PC) (Gloeobacter violaceus, UniProt Q7M7C7+Q7M7F7).
T1 construct: gene cpcA; native, (αβ)6 hexamers of rods and Rx in isolated GraFix cross-linked phycobilisome
The conditions noted are these: covalent; one bilin on alpha, two on beta.

The target of assay [2] is T2, ApcE (Gloeobacter violaceus, UniProt Q7NL81).
T2 construct: native, within isolated GraFix cross-linked phycobilisome; bilin in N-terminal alpha-like domain, in third AP trimer of basal cylinders
T2 sequence (Q7NL81 1-1155): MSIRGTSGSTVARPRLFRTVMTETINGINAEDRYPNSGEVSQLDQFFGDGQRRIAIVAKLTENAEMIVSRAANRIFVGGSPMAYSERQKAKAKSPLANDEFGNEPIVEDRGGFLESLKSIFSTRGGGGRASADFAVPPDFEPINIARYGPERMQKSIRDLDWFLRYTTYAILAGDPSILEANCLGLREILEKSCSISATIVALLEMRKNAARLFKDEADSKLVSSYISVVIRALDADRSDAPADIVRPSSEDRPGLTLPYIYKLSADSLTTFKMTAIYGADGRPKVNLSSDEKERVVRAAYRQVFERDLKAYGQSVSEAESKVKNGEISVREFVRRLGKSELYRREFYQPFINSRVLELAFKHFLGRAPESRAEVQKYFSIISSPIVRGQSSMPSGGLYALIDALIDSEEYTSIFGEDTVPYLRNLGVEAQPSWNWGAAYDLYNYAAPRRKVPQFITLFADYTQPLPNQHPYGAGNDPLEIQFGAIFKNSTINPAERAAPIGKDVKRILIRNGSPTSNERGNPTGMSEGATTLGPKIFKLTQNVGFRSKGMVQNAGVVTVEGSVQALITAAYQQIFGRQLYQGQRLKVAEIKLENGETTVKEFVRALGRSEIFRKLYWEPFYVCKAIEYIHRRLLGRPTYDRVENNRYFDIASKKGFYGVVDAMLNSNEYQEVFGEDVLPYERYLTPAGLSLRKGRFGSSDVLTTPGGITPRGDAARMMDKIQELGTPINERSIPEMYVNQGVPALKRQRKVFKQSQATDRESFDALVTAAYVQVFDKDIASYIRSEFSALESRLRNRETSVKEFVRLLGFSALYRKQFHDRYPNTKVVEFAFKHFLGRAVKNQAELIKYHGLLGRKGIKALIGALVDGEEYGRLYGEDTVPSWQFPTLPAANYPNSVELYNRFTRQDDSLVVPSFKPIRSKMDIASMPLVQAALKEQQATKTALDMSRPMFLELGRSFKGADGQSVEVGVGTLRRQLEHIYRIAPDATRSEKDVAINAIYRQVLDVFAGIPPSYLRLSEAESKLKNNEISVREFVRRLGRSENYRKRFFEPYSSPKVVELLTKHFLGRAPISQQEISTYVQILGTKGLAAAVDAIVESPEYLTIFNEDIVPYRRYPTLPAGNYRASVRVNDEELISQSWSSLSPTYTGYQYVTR
The conditions noted are these: covalent; terminal emitter, D ring stacks on Trp162; ring conformation not resolved without restraints.

Assay [3] concerns the target T3, allophycocyanin (AP) (Gloeobacter violaceus, UniProt Q7NL79+Q7NL80).
T3 construct: gene apcA; native, (αβ)3 trimers of the pentacylindrical core in isolated GraFix cross-linked phycobilisome
T3 sequence (Q7NL80 1-161): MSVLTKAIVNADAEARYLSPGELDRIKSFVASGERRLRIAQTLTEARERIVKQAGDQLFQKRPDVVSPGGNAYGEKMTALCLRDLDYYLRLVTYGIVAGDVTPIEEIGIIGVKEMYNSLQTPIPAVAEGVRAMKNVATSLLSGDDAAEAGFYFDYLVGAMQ
T3 sequence (Q7NL79 1-161): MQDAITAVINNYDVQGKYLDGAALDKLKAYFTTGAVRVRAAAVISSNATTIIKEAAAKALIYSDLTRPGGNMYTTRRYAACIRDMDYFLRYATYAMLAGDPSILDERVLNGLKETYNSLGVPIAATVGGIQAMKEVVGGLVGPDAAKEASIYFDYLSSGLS
Particulars: covalent; one bilin on each alpha and beta subunit.

T1 sequence (Q7M7F7 1-162): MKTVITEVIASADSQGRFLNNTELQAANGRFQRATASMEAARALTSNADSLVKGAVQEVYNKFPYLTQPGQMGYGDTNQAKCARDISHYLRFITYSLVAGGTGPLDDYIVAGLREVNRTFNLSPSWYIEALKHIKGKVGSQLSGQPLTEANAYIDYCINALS
T1 sequence (Q7M7C7 1-172): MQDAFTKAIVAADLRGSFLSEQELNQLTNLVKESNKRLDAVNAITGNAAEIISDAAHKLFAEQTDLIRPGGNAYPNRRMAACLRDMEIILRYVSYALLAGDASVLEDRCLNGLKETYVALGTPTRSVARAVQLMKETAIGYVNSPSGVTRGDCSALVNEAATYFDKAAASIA

For `CC=C1C(=Cc2[nH]c(C=C3N=C(C=C4NC(=O)C(CC)=C4C)C(C)=C3CCC(=O)O)c(CCC(=O)O)c2C)NC(=O)C1C` (stereo not drawn) [phycocyanobilin], the “cryo-EM structure of phycobilisome” value in assay [1] is “PCB conformations within PC hexamers in rods and AP hexamers in the core were resolved”; in assay [2], “resolved in cryo-EM density map, including the terminal emitting bilin in ApcE”; in assay [3], “PCB conformations within PC hexamers in rods and AP hexamers in the core were resolved”.
